From ChEMBL document CHEMBL1149361, “Synthesis, biochemical evaluation and rationalisation of the inhibitory activity of a range of 4-substituted phenyl alkyl imidazole-based inhibitors of the enzyme complex 17alpha-hydroxylase/17,20-lyase (P450(17alpha))” (Bioorg Med Chem Lett, 2006)

Legend:
[1] = target: T1, Steroid 17-alpha-hydroxylase/17,20 lyase (Rattus norvegicus, UniProt P11715); assay: Inhibition of rat testis 17-alpha-hydroxylase component of P450-17alpha at 10 uM
T1 sequence (P11715 whole entry): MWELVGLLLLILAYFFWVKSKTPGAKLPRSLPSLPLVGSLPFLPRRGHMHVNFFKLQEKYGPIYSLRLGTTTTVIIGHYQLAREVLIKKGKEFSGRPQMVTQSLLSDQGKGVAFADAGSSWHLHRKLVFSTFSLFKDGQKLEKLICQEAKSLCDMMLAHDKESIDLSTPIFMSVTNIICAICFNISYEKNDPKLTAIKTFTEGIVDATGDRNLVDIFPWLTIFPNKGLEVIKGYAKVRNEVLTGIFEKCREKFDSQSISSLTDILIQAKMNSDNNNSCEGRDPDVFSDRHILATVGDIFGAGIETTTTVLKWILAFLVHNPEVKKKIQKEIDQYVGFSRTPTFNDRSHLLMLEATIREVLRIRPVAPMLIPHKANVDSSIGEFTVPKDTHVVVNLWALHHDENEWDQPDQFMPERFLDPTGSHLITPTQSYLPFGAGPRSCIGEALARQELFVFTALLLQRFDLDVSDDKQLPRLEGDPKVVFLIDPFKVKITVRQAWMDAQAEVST

[2] = target: T1, Steroid 17-alpha-hydroxylase/17,20 lyase; assay: Inhibition of rat testis 17-alpha-hydroxylase component of P450-17alpha
[3] = target: T1, Steroid 17-alpha-hydroxylase/17,20 lyase; assay: Inhibition of rat testis 17,20 lyase component of P450-17alpha at 10 uM
[4] = target: T1, Steroid 17-alpha-hydroxylase/17,20 lyase; assay: Inhibition of rat testis 17,20 lyase component of P450-17alpha

| SMILES | inhibition at 10 µM [1] | IC50 [2] | inhibition at 10 µM [3] | IC50 [4] |
| --- | --- | --- | --- | --- |
| Clc1ccc(Cn2ccnc2)cc1 | 45.7% | 29.8 µM | 73.7% | 4.94 µM |
| Fc1ccc(CCCn2ccnc2)cc1 | 40.8% | 27.8 µM | 73.2% | 1.96 µM |
| Fc1ccc(Cn2ccnc2)cc1 | 20.5% | 96.5 µM | 51% | 11.3 µM |
| c1ccc(CCCn2ccnc2)cc1 | 23.4% | 30.9 µM | 40% | 6.14 µM |
| CC(=O)N1CCN(c2ccc(OCC3COC(Cn4ccnc4)(c4ccc(Cl)cc4Cl)O3)cc2)CC1 (stereo not given) [KETOCONAZOLE] | 61.5% | – | 78.7% | – |
| c1ccc(Cn2ccnc2)cc1 | 13.5% | 154 µM | 12.6% | 50.9 µM |
| Brc1ccc(CCn2ccnc2)cc1 | 37.5% | 30.7 µM | 61.5% | – |
| Brc1ccc(CCCn2ccnc2)cc1 | 70.2% | 2.95 µM | 86.3% | 0.33 µM |
| Fc1ccc(CCn2ccnc2)cc1 | 22.5% | 120 µM | 45.1% | – |
| Clc1ccc(CCCn2ccnc2)cc1 | 71% | 5.85 µM | 80.8% | 0.55 µM |
| Brc1ccc(Cn2ccnc2)cc1 | 49.3% | 16.6 µM | 76.2% | 2.85 µM |
| c1ccc(CCn2ccnc2)cc1 | 10.6% | – | 6.36% | – |
| Clc1ccc(CCn2ccnc2)cc1 | 28.4% | 49.6 µM | 57.4% | – |
